Reference: patent US9597369B2, “Inhibitors of atypical protein kinase C and their use in treating hedgehog pathway-dependent cancers” (The Board of Trustees of the Leland Stanford Junior …, priority 2011, dated 2017)
Blank lines part the entries; values can stand above or below the molecule they belong to. Peptide text beside a SMILES is read from it. * marks the point of attachment. Myristoyl = CCCCCCCCCCCCCC(=O)*

What was measured:
[1] = test system: ASZ001 cells; format: cell-based, mouse; details: 48 h
Description: (§1) Primary mouse dermal cells were isolated as previously described (Bershteyn, M., Atwood, S. X., Woo, W.-M., Li, M. & Oro, A. E. MIM and cortactin antagonism regulates ciliogenesis and hedgehog signaling. Dev. Cell 19, 270-283 (2010)). Dermal cells were grown in Amniomax media containing supplement and antibiotics (Invitrogen). ASZ001 cells were grown in 154CF media containing 2% chelated FBS, HKGS supplement, and antibiotics (Invitrogen). Keratinocytes (HPA Culture Collections) were grown in CnT-07 media containing supplement and 0.07 mM CaCl2 (CelINTec). Cells were sterum-starved between 24-48 hrs to induce ciliogenesis. MTT cell proliferation assay was performed using manufacturer's protocol from Invitrogen.
(§2) Subconfluent ASZ001 cells were serum-starved and inhibitors added for 48 hrs prior to MTT assay and 24 hrs prior to visualize cilia and assay Gli target gene induction. Stability assays performed with ASZ001 preincubated with PSI for one hour before 20 ug/ml cyclohexamide addition at various time points.

[2] = test system: non-tumorigenic cells; assay: Proliferation of non-tumorigenic cells; format: cell-based, mouse and human; details: mouse dermal fibroblasts, mouse keratinocytes, human retinal pigment epithelial cells, FIG. 7
Description: as §1

[3] = test system: allografted BCC tumors; details: mouse, in vivo
Excerpt: All mouse studies were approved by and conformed to the policies and regulations of the Institutional Animal Care and Use Committees at Stanford University and the Children's Hospital Oakland Research Institute. Ptch1+/−, K14CreER2, p53flox/flox mice were used to develop BCC tumors. Tumors were allografted as previously described (Wang, G. Y. et al. Establishment of Murine Basal Cell Carcinoma Allografts: A Potential Model for Preclinical Drug Testing and for Molecular Analysis. Journal of Investigative Dermatology (2011).doi:10.1038/jid.2011.204). Nine tumors from three mice were treated topically twice daily with 0.8 mg/kg PSI dissolved in DMSO for at least 32 days. Ten tumors from three mice were treated with DMSO twice daily as a control. Mice were euthanized and tumors harvested depending on tumor size that exceeded our animal care guidelines. We measured the change in tumor size with calipers every three to four days. Pairwise comparisons between DMSO and PSI treatment were done using a two-sided unpaired t test with GraphPad Prism software.

[4] = test system: Hh signaling; assay: Hh signaling (gli1 mRNA, Gli target gene induction) in BCC cells; format: cell-based, mouse
Description: as §2
(§3) Aligned 36 bp raw reads with Bowtie using the NCBI37/mm9 reference genome. Differential expression analysis was performed on the 3′ exon with the Cufflinks suite using mouse RefSeq gene predictions as a reference transcriptome. Annotated coding transcripts were filtered for significant expression by a RPKM of 25 in at least one sample set. […] Transcripts were validated using Brilliant II SYBR Green qRT-PCR Master Mix Kit (Agilent Technologies) with primers listed in the following table. Two-tail p-value between our gene sets and other gene sets calculated using Fisher's Exact Test.

[5] = test system: ASZ001 cells; assay: 3' end RNA sequencing of inhibitor-treated BCC cells; format: cell-based, mouse; details: inhibitor 24 hrs, FIG. 3a
Description: as §3

IC50 [1]: 5 µM
Structure (SMILES): CCCCCCCCCCCCCC(=O)N[C@@H](CO)C(=O)N[C@H](C(=O)N[C@@H](Cc1ccc(O)cc1)C(=O)N[C@@H](CCCNC(=N)N)C(=O)N[C@@H](CCCNC(=N)N)C(=O)NCC(=O)N[C@@H](C)C(=O)N[C@@H](CCCNC(=N)N)C(=O)N[C@@H](CCCNC(=N)N)C(=O)N[C@@H](Cc1c[nH]c2ccccc12)C(=O)N[C@@H](CCCNC(=N)N)C(=O)N[C@@H](CCCCN)C(=O)N[C@@H](CC(C)C)C(=O)N[C@@H](Cc1ccc(O)cc1)C(=O)O)[C@@H](C)CC [PSI] (Myristoyl-SIYRRGARRWRKLY-OH)
proliferation in non-tumorigenic cells [2]: unaffected
adverse effects on normal skin [3]: no adverse effects to PSI treatment except a mild hair phenotype

Structure (SMILES): CNC1CCC(N(Cc2cccc(-c3ccncc3)c2)C(=O)c2sc3ccccc3c2Cl)CC1 (centres unmarked) [SAG]
gli1 transcription ([4]; BCC cells, agonist alone, FIG. 3d): activates gli1 transcription

Structure (SMILES): Cc1nn(-c2ccccc2)c(C)c1/C=N/N1CCN(Cc2ccccc2)CC1 [Sant-1]
cdc42 transcript ([4]; mouse BCC cells, FIG. 2i): repressed
pard6a transcript ([4]; mouse BCC cells, FIG. 2i): elevated
transcripts changed two-fold or greater compared to control [5]: 5700 transcripts

Structure (SMILES): CC1=C2C[C@H]3[C@@H](CC=C4C[C@@H](O)CC[C@@]43C)[C@@H]2CC[C@]12O[C@@H]1C[C@H](C)CN[C@H]1[C@H]2C [cyclopamine]
gli1 and apkciota transcript ([4]; BCC cells, FIG. 2g): specifically suppressed
